This is an account of results in PMC9653995, “New Positive TRPC6 Modulator Penetrates Blood–Brain Barrier, Eliminates Synaptic Deficiency and Restores Memory Deficit in 5xFAD Mice” (International Journal of Molecular Sciences, 2022).

Data set [1] in a line: In vivo pharmacokinetics in plasma and brain after single i.p. injection. Also on record: species or system CD-1 mice. Particulars: mice, 10 mg/kg i.p. Here is the method:
Two-month-old CD-1 mice (males) were used for pharmacokinetic studies. CD-1 mice were obtained from Charles River GmbH and housed in the laboratory of bioanalytics of the ChemRar research institute. The number of animals in the study was kept at a minimum in terms of ethical principles and regulatory requirements.
The study was carried out on 20 mice. Five animals constituted the control group, which were not injected with the C20 substance. The remaining 15 animals were divided into 5 groups of 3 animals per time point. At least 12 h before the start of the experiment, the animals were deprived of food with free access to water.
All 15 animals from the experimental groups underwent a single intraperitoneal injection of the C20 formulation at a dose of 10 mg/kg (formulation containing 10% ethanol). After 0.25, 0.5, 1, 2, and 4 h, CO2 euthanasia was performed in each group of animals in accordance with the time point. Blood plasma and brain samples were obtained.
Blood was collected by cardiopuncture in a volume of 0.2 mL into polypropylene tubes containing 20 μL of 5% EDTA. Blood plasma was separated by centrifugation at 10,000 rpm for 10 min.
Pharmacokinetic analysis was performed by a non-compartmental method using the Phoenix WinNonlin 6.3 software package (Pharsight Corporation, Mountain View, CA, USA) and in accordance with SOP-BL-AN-027 “Calculation and analysis of parameters of pharmacokinetic and toxicokinetic studies. Statistical processing of results”.
Analysis of pharmacokinetic parameters was performed using averaged pharmacokinetic curves in the plasma and brain. The main pharmacokinetic parameters were determined:
The intensity of C20 penetration into the brain was assessed in terms of tissue availability (ft):(1) ft=AUCt/AUCk, where AUCt is the area under the pharmacokinetic curve in the tissue; AUCk is the area under the pharmacokinetic curve in blood plasma.

Another data set deals with 5xFAD mice. The experiment in a line: Contextual and cued fear conditioning test. Particulars: 10 mg/kg i.p. daily for 14 days. It is filed as in vivo, mouse. Here is the method:
To analyze the effect of C20 on the cognitive status of diseased mice, a contextual and cued fear conditioning test was performed in the 5xFAD mice. Two WT cohorts and two 5xFAD cohorts of eight mice each were intraperitoneally injected (every day for 14 days) with either C20 (10 mg/kg) or an equal amount of vehicle.
Six-month-old 5xFAD and WT mice were intraperitoneally injected with C20 (10 mg/kg b.w. dissolved in ethanol (13.5%) and diluted in 0.9% saline (86.5%)) or an equal volume of ethanol diluted in 0.9% saline (vehicle) once daily for 14 days. To analyze the effect of C20 on cognitive behavior, mice were subjected to hippocampus-dependent contextual fear conditioning and hippocampus independent tone fear conditioning (n = 8 mice in each group).
According to a 3-day delay fear conditioning protocol, the conditioned stimulus is presented and overlapped by the presentation of the unconditioned stimulus. The experiments were performed using a standard conditioning chamber (25 cm × 20 cm × 30 cm) with a stainless steel floor connected to an electric shock generator. The chamber was housed in a soundproof isolation cubicle. Measurements were accomplished through two cameras (Web camera FI#2.0 8mm и Webcam Logitech C200, Apples, Switzerland), connected to a computer with video freeze software (AUTO_URAI_4 developer Dr. V.V. Sizov, Institute of Experimental Medicine, Saint Petersburg, Russia, I.P. Pavlov Department of Physiology, sizoff@list.ru).
To exclude possible freezing due to the novel environment, we allowed the mice to habituate to the chamber. On day 1 (habituation), we brought mice into the habituation room and placed them into a training chamber individually for 5 min without any cue.
On day 2 (training), we placed each mouse in the conditioning chamber for 2 min without any shock or tone. Then, mice received two repetitions of a tone (500 Hz, 55 dB) that simultaneously ended with a 2 s foot shock (0.3 mA, US) with 60 s inter-trial intervals. Mice were allowed to recover after the foot-shock for an additional 60 s before being removed to their home cage.
On day 3 (testing), mice were placed back in the familiar fear conditioning chamber, but in the absence of tones and foot shocks. The freezing behavior was measured for 180 s to test contextual memory retrieval. For the tone fear retrieval trial one hour after the contextual test, mice were placed in an altered conditioning chamber with black and white striped walls, a covered floor, and a vanilla extract scent. After 180 s of baseline in an altered conditioning recording, a tone similar to the one used during the fear conditioning training was presented for 180 s. The freezing behavior before and during the tone was measured.

For the molecule `COc1cc2c(cc1OC)C(c1cc3ccccc3oc1=O)=NC(C)(C)C2` [C20, 3-(3-,4-Dihydro-6,7-dimethoxy-3,3-dimethyl-1-isoquinolinyl)-2H-1-benzopyran-2-one], in data set [1], the “concentration in brain samples after 4 h” value came out at 10 ng/g, the “half-life (t1/2) of elimination from plasma” value worked out at 31.2 min and the “half-life (t1/2) of excretion from the brain” value is 44.4 min. For the same molecule, the “maximum concentration in plasma” value in data set [1] (formulation with 10% ethanol) was 789 ng/mL. For the same molecule, the “time of maximum concentration (plasma and brain)” value in data set [1] (first sampling point) is listed as 15 min. Also, the “index of tissue availability in the brain (ft) in relation to blood plasma” value in data set [1] (ft = AUCt/AUCk) is 1.05. For the same molecule, in the data set on 5xFAD mice (6-month-old 5xFAD mice, 5xFAD + vehicle 33.88 ± 15.09%), the “freezing time to context” value was determined as 67.00 ± 17.78%. Also, the “freezing time to tone” value in the data set with 5xFAD mice (6-month-old 5xFAD mice, 5xFAD + vehicle 37.75 ± 8.25%) worked out at 63.50 ± 13.38%. The “freezing time to context” value with 5xFAD mice (WT mice, WT + vehicle 58.25 ± 19.06%) turned out to be 59.63 ± 17.53%. Besides, in the data set on 5xFAD mice (WT mice, WT + vehicle 69.25 ± 18.19%), the “freezing time to tone” value came to 67.75 ± 7.56%.
